Our source for the IC50 values is patent publication US9255100B2 (BAYER INTELLECTUAL PROPERTY GMBH, priority 2010, dated 2016).

Each structure is given as a SMILES string.

The target in the first experiment is T1, N-terminally GST-tagged human full length recombinant Mps-1 kinase (Homo sapiens, UniProt P33981).
T1 construct: N-terminally GST-tagged human full length recombinant Mps-1 kinase; purchased Invitrogen, Karslruhe, Germany PV4071
T1 sequence (P33981 1-857): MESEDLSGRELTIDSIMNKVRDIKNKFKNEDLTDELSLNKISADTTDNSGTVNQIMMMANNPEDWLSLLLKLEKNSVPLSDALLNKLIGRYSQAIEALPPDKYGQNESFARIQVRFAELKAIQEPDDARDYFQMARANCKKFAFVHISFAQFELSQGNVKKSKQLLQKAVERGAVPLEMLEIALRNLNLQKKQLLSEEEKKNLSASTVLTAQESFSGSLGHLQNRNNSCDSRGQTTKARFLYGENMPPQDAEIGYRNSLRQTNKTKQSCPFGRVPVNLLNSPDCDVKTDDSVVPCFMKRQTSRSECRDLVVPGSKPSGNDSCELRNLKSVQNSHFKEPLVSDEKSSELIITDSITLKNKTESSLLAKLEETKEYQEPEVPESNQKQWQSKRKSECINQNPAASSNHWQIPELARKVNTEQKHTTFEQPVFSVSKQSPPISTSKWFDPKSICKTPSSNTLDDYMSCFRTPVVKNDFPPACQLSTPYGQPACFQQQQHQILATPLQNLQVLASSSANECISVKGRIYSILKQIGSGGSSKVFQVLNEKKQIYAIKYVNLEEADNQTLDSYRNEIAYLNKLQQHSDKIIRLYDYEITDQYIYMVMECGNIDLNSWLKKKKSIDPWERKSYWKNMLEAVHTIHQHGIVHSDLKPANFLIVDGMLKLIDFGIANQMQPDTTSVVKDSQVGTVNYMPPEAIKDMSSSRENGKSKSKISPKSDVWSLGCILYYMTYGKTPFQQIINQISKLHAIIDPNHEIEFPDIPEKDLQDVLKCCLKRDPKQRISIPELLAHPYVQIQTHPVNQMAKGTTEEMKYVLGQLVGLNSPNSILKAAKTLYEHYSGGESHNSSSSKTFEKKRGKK
In words: Mps-1 kinase assay (TR-FRET). Type of experiment: biochemical. The following applies: 10 μM ATP, 1 μM peptide substrate, 60 min at 22° C., read-out: Mps1 IC50. The method, boiled down:
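Read-out: TR-FRET from Europium-labelled anti-phospho(Ser/Thr) antibody to SA-XLent after 1 h detection incubation at 22° C. Inhibition of kinase activity measured.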
Consider `Cc1cc(-c2cnc3c(NCC4CC[S+]([O-])CC4)cc(Oc4ccc(F)cc4)nn23)ccc1C(=O)NC1CC1` (mixture of isomers) [Example 295B, N-cyclopropyl-4-[6-(4-fluorophenoxy)-8-({[(cis/trans)-1-oxidotetrahydro-2H-thiopyran-4-yl]methyl}amino)imidazo[1,2-b]pyridazin-3-yl]-2-methylbenzamide], for which the IC50 amounted to 0.2 nM.

Staying with this experiment, now noted: Mps1 IC50 [nM], 10 μM ATP, 1 μM peptide substrate, 60 min at 22° C.
For the compound `Cc1cc(-c2cnc3c(NCCCO)cc(-c4ccnn4C)nn23)ccc1C(=O)NC1CC1` [Example 211, N-cyclopropyl-4-{8-[(3-hydroxypropyl)amino]-6-(1-methyl-1H-pyrazol-5-yl)imidazo[1,2-b]pyridazin-3-yl}-2-methylbenzamide], the IC50 amounted to 5.8 nM.
In the case of `Cc1cccc(Nc2cc(NCCC(F)(F)F)c3ncc(-c4ccc(C(=O)NC5CC5)c(C)c4)n3n2)c1` [Example 423, N-cyclopropyl-2-methyl-4-{6-[(3-methylphenyl)amino]-8-[(3,3,3-trifluoropropyl)amino]imidazo[1,2-b]pyridazin-3-yl}benzamide], the 50% inhibitory concentration (IC50) was 0.3 nM.
The same measure, in the same setting: the result for `CNC(=O)c1ccc(-c2cnc3c(NCc4cccs4)cc(Cl)nn23)cc1` [Example 190, 4-{6-Chloro-8-[(thiophen-2-yl-methyl)amino]imidazo[1,2-b]pyridazin-3-yl}-N-methylbenzamide] reads 660 nM; that for `Cc1cc(-c2cnc3c(NCC(C)(C)O)cc(Oc4ccccc4F)nn23)ccc1C(=O)NC1CC1` [Example 93, N-cyclopropyl-4-{6-(2-fluorophenoxy)-8-[(2-hydroxy-2-methylpropyl)amino]imidazo[1,2-b]pyridazin-3-yl}-2-methylbenzamide], 0.3 nM.
As to `Cc1cc(-c2cnc3c(NCCC(F)(F)F)cc(Oc4ccc(F)c(F)c4)nn23)ccc1C(=O)NC1CC1` [Example 260, N-cyclopropyl-4-{6-(3,4-difluorophenoxy)-8-[(3,3,3-trifluoropropyl)amino]imidazo[1,2-b]pyridazin-3-yl}-2-methylbenzamide], the IC50 turned out to be 0.2 nM.
`Cc1cc(-c2cnc3c(NCC(C)(C)O)cc(Sc4cnccn4)nn23)ccc1C(=O)NC1CC1` [Example 412, N-cyclopropyl-4-{8-[(2-hydroxy-2-methylpropyl)amino]-6-(pyrazin-2-ylsulfanyl)imidazo[1,2-b]pyridazin-3-yl}-2-methylbenzamide]: the IC50 turned out to be 19.2 nM.
Still for that read-out and setting: the result for `Cc1cc(-c2cnc3c(NCC4CNC4)cc(Oc4ccccc4)nn23)ccc1C(=O)NC1CC1` [Example 315, 4-{8-[(azetidin-3-ylmethyl)amino]-6-phenoxy-imidazo[1,2-b]pyridazin-3-yl}-N-cyclopropyl-2-methylbenzamide] reads 0.3 nM; that for `Cc1cc(-c2cnc3c(NCC(C)(C)O)cc(Nc4ccncc4)nn23)ccc1C(=O)NC1CC1` [Example 365, N-cyclopropyl-4-{8-[(2-hydroxy-2-methylpropyl)amino]-6-(pyridin-4-ylamino)imidazo[1,2-b]pyridazin-3-yl}-2-methylbenzamide], 4.4 nM; that for `C=Cc1cc(NCCC(F)(F)F)c2ncc(-c3ccc(C(=O)NC4CC4)c(C)c3)n2n1` [Example 41, N-cyclopropyl-2-methyl-4-{8-[(3,3,3-trifluoropropyl)amino]-6-vinylimidazo[1,2-b]pyridazin-3-yl}benzamide], 7.1 nM.
Still for that read-out and setting: the result for `CC(C)(O)CNc1cc(-c2ccncc2)nn2c(-c3ccc(C(=S)NC4CC4)cc3)cnc12` [Example 47, N-cyclopropyl-4-{8-[(2-hydroxy-2-methylpropyl)amino]-6-(pyridin-4-yl)imidazo[1,2-b]pyridazin-3-yl}benzenecarbothioamide] reads 2 nM; that for `Cc1cc(-c2cnc3c(NCC(C)(C)O)cc(Nc4cccc(Cl)c4)nn23)ccc1C(=O)NC1CC1` [Example 355, 4-{6-[(3-chlorophenyl)amino]-8-[(2-hydroxy-2-methylpropyl)amino]imidazo[1,2-b]pyridazin-3-yl}-N-cyclopropyl-2-methylbenzamide], 0.9 nM.

By IC50 is commonly meant the concentration that inhibits the measured activity by half.
